Read-outs that look alike come from different tables or passages of the source.
Tests used:
GPR120 = molecular target: T1, GPR120 (Homo sapiens, UniProt Q5NUL3); details: cited from earlier work
T1 sequence (Q5NUL3 1-361): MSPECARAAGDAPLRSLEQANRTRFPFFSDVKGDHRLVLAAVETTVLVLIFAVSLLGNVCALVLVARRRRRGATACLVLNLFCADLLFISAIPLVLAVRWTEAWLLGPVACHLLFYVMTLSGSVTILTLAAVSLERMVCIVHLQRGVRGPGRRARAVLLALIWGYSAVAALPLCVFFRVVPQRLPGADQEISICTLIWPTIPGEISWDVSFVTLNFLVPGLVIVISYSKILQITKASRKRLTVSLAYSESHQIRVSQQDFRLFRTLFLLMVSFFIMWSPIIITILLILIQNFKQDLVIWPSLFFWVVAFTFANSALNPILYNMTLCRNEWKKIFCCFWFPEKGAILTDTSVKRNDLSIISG

GPR84 = GPR84 (Homo sapiens, UniProt Q9NQS5); details: cited from earlier work
Sequence of GPR84 (Q9NQS5 whole entry, species assumed): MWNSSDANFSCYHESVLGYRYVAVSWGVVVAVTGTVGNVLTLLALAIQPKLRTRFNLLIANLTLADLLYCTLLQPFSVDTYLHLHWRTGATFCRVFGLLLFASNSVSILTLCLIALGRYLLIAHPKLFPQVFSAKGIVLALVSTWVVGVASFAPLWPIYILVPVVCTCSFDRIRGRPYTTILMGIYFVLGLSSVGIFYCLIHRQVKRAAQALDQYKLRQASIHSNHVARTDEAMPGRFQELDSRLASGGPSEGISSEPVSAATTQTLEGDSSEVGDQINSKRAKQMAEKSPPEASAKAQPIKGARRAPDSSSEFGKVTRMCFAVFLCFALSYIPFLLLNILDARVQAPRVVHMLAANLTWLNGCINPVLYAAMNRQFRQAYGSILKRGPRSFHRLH

GPR40 = GPR40 (Homo sapiens, UniProt O14842); details: cited from earlier work
Sequence of GPR40 (O14842 whole entry, species assumed): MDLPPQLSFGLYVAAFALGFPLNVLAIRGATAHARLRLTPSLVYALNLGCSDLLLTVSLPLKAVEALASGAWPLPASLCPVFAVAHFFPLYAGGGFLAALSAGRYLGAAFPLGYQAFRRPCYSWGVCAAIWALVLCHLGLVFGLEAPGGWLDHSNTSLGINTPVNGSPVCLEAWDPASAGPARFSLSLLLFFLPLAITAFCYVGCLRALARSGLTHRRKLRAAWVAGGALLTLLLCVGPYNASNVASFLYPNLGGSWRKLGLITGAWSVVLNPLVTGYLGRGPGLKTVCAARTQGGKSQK

[1] = Tissue distribution and oral exposure in ICR mice (LC-MS); type: in vivo; details: oral 5 mg/kg; for AUC(0-t): mouse
Method: The tissue distribution experiment of compounds XYF573c and LSX472a of the present invention in ICR mice was carried out, and their distribution in plasma and organs and oral exposure (AUC0-8h) were compared.
ICR mice were purchased from Shanghai Experimental Animal Research Center.
The concentrations of the compounds in plasma and various organs of ICR mice were detected by LC-MS.
During the experiment, the mice were fasted for more than 12 hours, had free access to water, and provided with food 2 hours after administration.
Both compounds XYF573c and LSX472a were administered orally, the dose was 5 mg/kg, and the solvent was DMSO/0.5% HPMC (5/95, v/v), N=3.
At 0.5 h, 2 h and 8 h after oral administration, about 20 μL of mouse heart blood, portal vein plasma or 20 mg of liver, lung, and ileum tissues were taken in clean centrifuge tubes, 200 μL of MeOH/ACN (50/50, v/v) was added and spun in a vortex mixer for 1 min. The mixtures were centrifuged at 15,000 rpm for 5 min and 20 μL of supernatants were mixed with 20 μL of ACN/water (1/1, v/v) and quantified by LC-MS.
The values of AUC0-8h were calculated by trapezoidal method based on the concentrations of the compound at 0.5 h, 2 h and 8 h.

[2] = test system: inflammatory bowel disease; details: trial terminated; cited from earlier work

CCCCCc1cc(CCCCC)cc(CC(=O)[O-])c1.[Na+] [PBI-4547, 3,5-di-n-pentyl phenylacetate sodium]
agonistic activity on GPR120 (GPR120): agonistic activity
antagonistic activity on GPR84 (GPR84): at the micromolar level
agonistic activity on GPR40 (GPR40): agonistic activity

COc1cccc2c1Sc1ccccc1C=C2OP(=O)(O)O[C@@H]1C[C@@H]2CC[C@@]1(C)C2(C)C [LSX472a]
AUC(0-t) ([1]; heart plasma, read-out: AUC0-8h, Heart plasma): 7750 ng·h/mL
AUC(0-t) ([1]; portal vein plasma, read-out: AUC0-8h, Portal vein plasma): 8820 ng·h/mL
exposure in the intestinal tract (such as Ileum) compared to XYF573c [1]: significantly increased
AUC0-8h, Ileum ([1]; ileum): 62902.60 ng·h/g
AUC0-8h, Liver ([1]; liver): 4387.83 ng·h/g
AUC0-8h, Lung ([1]; lung): 745.34 ng·h/g
increase in oral exposure (Plasma AUC0-8h) compared to XYF573c ([1]; plasma): 13 fold

O=c1nc(OC[C@@H]2COCCO2)cc2n1CCc1cc(C#CC3CC3)ccc1-2 [GLPG1205]
efficacy in phase II clinical study versus placebo [2]: lack of significant difference in efficacy from the placebo group

— US20240342201A1, “ASYMMETRIC GPR84 ANTAGONIST AND USE THEREOF” (priority 2021, published 2024)
